Non-standard residues stand in square brackets, D forms with d. Residues, ends and D or L forms follow the SMILES beside them.
Molecular target: T1, R3 domain of tau (Homo sapiens, UniProt P10636)
T1 construct: purchased CASLO ApS, Lyngby, Denmark; host or cells: synthetic peptide
Test: SPR measurement (Biacore 8K, single cycle)
Type: binding
Details: single cycle kinetics, peptide immobilized on CM5 chip, R3 (304-336) 3.125-100 nM as analyte, PBS pH 7.4, 0.05% Tween20, 1:1 fit
Procedure: Figure 8 SPR measurements of TF2D-5 and TF2D-5a with monomeric full-length tau 441 and tau repeat region 3. […] The concentration of tau during the measurement ranged from 3.125 nM to 25 nM. […] Tau was used in concentrations ranging from 31.25 nM to 500 nM. SPR measurements of A and B were recorded on a T200 Biacore instrument, the corresponding compound was immobilized on a CM5 chip from Cytiva while monomeric tau served as analyte. Tests were performed with TBS pH 7.4, 0.05% Tween20 and 10 µM DTT as running buffer. Fit calculation was completed with the internal evaluation software of the T200 Biacore. A 1:1 model was used for both fits. […] The concentrations for the single cycle measurement ranged from 3.125 nM to 100 nM. Measurements of C were performed on a Biacore 8K using a CM5 chip from Cytiva. TF2D-5a was immobilized on the chip while the R3 region of tau was used as analyte. PBS pH 7.4 with 0.05% Tween20 as used as running buffer. Fit calculation was performed using the Biacore insight evaluation software and a 1:1 model. […]
Measurements of TF2D-5a against the R3 domain of tau were performed on a Biacore 8K (GE Healthcare, Uppsala, Sweden) using a single cycle experiment. […] The data were analyzed using the Biacore insight evaluation software 3.0.12.15655 using a 1:1 fit.

T1 sequence (P10636 622-652 limits assumed): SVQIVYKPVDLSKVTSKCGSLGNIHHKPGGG

Question: `CC[C@@H](C)[C@@H](NC(=O)[C@@H](Cc1c[nH]cn1)NC(=O)CNC(=O)CNC(=O)[C@H]1CCCN1C(=O)[C@H](NC(=O)[C@@H](CCCCN)NC(=O)[C@@H](Cc1ccccc1)NC(=O)[C@@H](CC(C)C)NC(=O)[C@H](NC(=O)[C@@H](CCC(N)=O)NC(=O)[C@@H](Cc1ccc(O)cc1)NC(=O)CNC(=O)CNC(=O)[C@H](N)CC(=O)O)[C@H](C)CC)[C@H](C)CC)C(=O)N[C@H](Cc1c[nH]cn1)C(=O)N[C@H](CCCNC(=N)N)C(=O)N[C@H](CCCNC(=N)N)C(=O)N[C@H](CCCNC(=N)N)C(=O)N[C@H](CCCNC(=N)N)C(=O)N[C@H](CCCNC(=N)N)C(N)=O` [TF2D-5a] (H-[dD]GG[dY][dQ][dI][dL][dF][dK][dI][dP]GG[dH][dI][dH][dR][dR][dR][dR][dR]-NH2) was tested. Which Kd did it give?
Answer: The Kd was 7.06 pM.
